Source: the supplement of paper PMC10307832

Assays:
Experiment in all cases: relative viability (nuclei count vs DMSO), 5 days (fraction); higher = more cells survive
Serdemetan + Dasatinib = compound: c1ccc2c(CCNc3ccc(Nc4ccncc4)cc3)c[nH]c2c1 [Serdemetan] + Cc1nc(Nc2ncc(C(=O)Nc3c(C)cccc3Cl)s2)cc(N2CCN(CCO)CC2)n1 [Dasatinib] (partner 0.075 µM)
Summary of the method: (§1)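 The day after seeding in 1536-well plates, lung cancer cell lines were treated by pin tool with a single drug, or with a fixed anchor-drug dose together with five library-drug doses (not always all listed) in √10 steps. After 5 days, a combined fix-and-stain solution (final 0.05% Triton X-100, 1% formaldehyde, 1 ug/ml Hoechst) was added. Nuclei counted on 4× images gave relative viability as treated counts over vehicle counts, reported as the median of duplicate plates.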

Selisistat + Decitabine = compound: C1CC(C2=C(C1)C3=C(N2)C=CC(=C3)Cl)C(=O)N [Selisistat] + Nc1ncn([C@H]2C[C@H](O)[C@@H](CO)O2)c(=O)n1 [Decitabine] (partner 2 µM)
Summary of the method: as §1

Serdemetan + Luminespib = compound: c1ccc2c(CCNc3ccc(Nc4ccncc4)cc3)c[nH]c2c1 [Serdemetan] + CCNC(=O)c1noc(-c2cc(C(C)C)c(O)cc2O)c1-c1ccc(CN2CCOCC2)cc1 [Luminespib] (partner 0.01 µM)
Summary of the method: as §1

Selisistat + Bortezomib = compound: C1CC(C2=C(C1)C3=C(N2)C=CC(=C3)Cl)C(=O)N [Selisistat] + CC(C)C[C@H](NC(=O)[C@H](Cc1ccccc1)NC(=O)c1cnccn1)B(O)O [Bortezomib] (partner 0.002 µM)
Summary of the method: as §1

Cell Line	relative viability (Serdemetan + Dasatinib; first compound 0.04 µM)	relative viability (Serdemetan + Dasatinib; first compound 0.1265 µM)	relative viability (Serdemetan + Dasatinib; first compound 0.4 µM)	relative viability (Serdemetan + Dasatinib; first compound 1.265 µM)	relative viability (Serdemetan + Dasatinib; first compound 4 µM)	relative viability (Selisistat + Decitabine; first compound 0.4 µM)	relative viability (Selisistat + Decitabine; first compound 1.265 µM)	relative viability (Selisistat + Decitabine; first compound 12.65 µM)	relative viability (Selisistat + Decitabine; first compound 40 µM)	relative viability (Serdemetan + Luminespib; first compound 0.04 µM)	relative viability (Serdemetan + Luminespib; first compound 0.1265 µM)	relative viability (Serdemetan + Luminespib; first compound 0.4 µM)	relative viability (Serdemetan + Luminespib; first compound 1.265 µM)	relative viability (Serdemetan + Luminespib; first compound 4 µM)	relative viability (Selisistat + Bortezomib; first compound 0.4 µM)	relative viability (Selisistat + Bortezomib; first compound 1.265 µM)	relative viability (Selisistat + Bortezomib; first compound 12.65 µM)	relative viability (Selisistat + Bortezomib; first compound 40 µM)	relative viability (Selisistat + Decitabine; first compound 4 µM)	relative viability (Selisistat + Bortezomib; first compound 4 µM)
NCI-H23	0.734	0.877	0.794	0.548	0.914	0.303	0.32	0.328	0.355	0.219	0.223	0.214	0.211	0.196	1.02	1.11	1.1	1.08		
NCI-H322M	0.266	0.24	0.248	0.214	0.272	0.812	0.708	0.747	0.637	0.807	0.845	0.772	0.861	0.678	1.36	1.25	1.42	1.39		
NCI-H441	0.69	0.649	0.516	0.585	0.435	0.268	0.234	0.25	0.293	0.381	0.298	0.321	0.316	0.325	0.74	0.588	0.467	0.482	0.234	
NCI-H460	0.616	0.545	0.47	0.258	0.141	0.474	0.499	0.467	0.513	0.0305	0.0294	0.0326	0.0303	0.0264	1.04	1.14	1.02	1.12	0.571	
NCI-H520	0.244	0.182	0.223		0.198	0.586	0.512	0.592	0.493	0.255	0.204	0.232		0.205	0.525	0.495	0.648	0.738	0.536	0.619
NCI-H596	0.677	0.637	0.645	0.565	0.522	1.07	1.02	1.09	1.07	1.02	0.955	0.861	0.59	0.602	1.01	0.105	0.947	1	0.862	0.817
NCI-H647	0.217	0.153	0.156	0.184	0.167	0.517	0.405	0.359	0.487	0.272	0.185	0.176	0.123	0.112	0.95	0.987	0.885	1.16	0.218	
NCI-H650	0.424	0.449	0.451	0.35	0.43	0.407	0.293	0.324	0.33	0.659	0.875	0.732	0.576	0.505	0.832		0.636	1.08	0.286	0.868
NCI-H661	0.856	0.916	0.849		0.564	0.592	0.521	0.46	0.442	0.91	0.943	0.95	0.799	0.854	0.858	0.816	0.701	0.704	0.428	0.664
